Key:
[1] = test system: ITE degradation in mouse plasma; assay: Inhibition of ITE degradation in mouse plasma by esterase inhibitors; type: biochemical; conditions: for inhibition of ITE degradation (in words, rank): mouse plasma, 1 millimolar benzil, BNPP and tacrine, 0.5 millimolar rivastigmine, pre-incubated 60 minutes
Source text: Each inhibitor provided at least some protection from degradation.
FIGS. 3-7 show a mass balance analysis of ITE+ITC in the presence of each inhibitor.

[2] = mouse
Experimental: Levels of ITE and ITC in mouse plasma were determined by liquid chromatography-mass spectrometry (LC-MS). Standard curves were produced by serial dilution of ITE and ITE and used to convert ion counts to absolute concentrations (FIG. 1A).
Each inhibitor was tested independently for its ability to protect ITE from degradation in 0.5 milliliters of mouse plasma (FIG. 2A).

| SMILES | inhibition of ITE degradation (in words, rank) [1] | ITE protected from degradation ([1]; 0.5 mL mouse plasma, at 120 minutes, 0.5 millimolar rivastigmine pre-incubated 60 minutes) | ITE lost ([2]; 30 min) | ITE degraded ([2]; 60 min) |
| --- | --- | --- | --- | --- |
| O=[N+]([O-])c1ccc(OP(=O)(O)Oc2ccc([N+](=O)[O-])cc2)cc1 [BNPP, bis-para-nitrophenylphosphate] | weaker inhibitors |  |  |  |
| Nc1c2c(nc3ccccc13)CCCC2 [Tacrine, tacrine] | weaker inhibitors |  |  |  |
| CCN(C)C(=O)Oc1cccc([C@H](C)N(C)C)c1 [Rivastigmine, rivastigmine] | best inhibitor of ITE degradation | ~70% |  |  |
| O=C(C(=O)c1ccccc1)c1ccccc1 [Benzil, benzil] | weakest single inhibitor |  |  |  |
| COC(=O)c1csc(C(=O)c2c[nH]c3ccccc23)n1 [ITE, 2-(1 H-Indol-3-ylcarbonyl)-4-thiazolecarboxylic acid methyl ester] |  |  | over 60% | about 90% |
